In article PMC10054552, “Phototoxic Potential of Different DNA Intercalators for Skin Cancer Therapy: In Vitro Screening” (International Journal of Molecular Sciences, 2023):
Like-named read-outs stand apart in the source and are kept apart here.

What was measured:
MET1 cells [1] = test: Cytotoxicity (resazurin cell viability) in MET1 cells; type: cell-based, human; settings: Homo sapiens, MET-1, MET1 cells, 1.25-320 µM
Text: (§1) The MET1 SCC cell line (human squamous cell carcinoma) was obtained from Ximbio (London, UK), HaCaT (immortalized human keratinocytes cell line) was obtained from Addexbio (San Diego, CA, USA) and WM983b (human metastatic melanoma cell line) was obtained from Rockland (Pottstown, PA, USA). Cells were maintained in Dulbecco’s Modified Eagle Medium (DMEM) supplemented with 10% (v/v) fetal bovine serum (FBS) for MET1 and HaCaT and 5% (v/v) for WM983b cells, and Pen–Strep (penicillin 100 U/mL and streptomycin 100 µg/mL). Cells were cultivated in an incubator (Sanyo MCO-19AIC-UV) at 37 °C in a 5% CO2 humidified atmosphere.
(§2) First, 96-well plates were seeded with HaCaT and MET1 cells at a density of 20,000 cells/cm² and incubated for 24 h. After that period, the culture medium was replaced by culture medium containing different compounds: MB, AO, GV, QT, CUR, EGCG, PHE, NEO and BIPY. The compounds were diluted in culture medium using a range of concentrations of each compound from 1.25 µM to 320 µM (in quadruplicate). The medium was aspirated from the 96-well plate and replaced by the samples diluted in medium. Cells cultured with complete medium and cells cultured with medium supplemented with 0.2% (v/v) or 10% (v/v) of DMSO were used as negative (NC), solvent (SC) and positive controls (PC), respectively. The plates were incubated for 24 and 48 h, followed by evaluation of cell viability using a colorimetric assay. Cells containing samples were washed with PBS supplemented with calcium and magnesium; then, resazurin solution diluted in DMEM at 0.02 mg/mL was added. The medium containing resazurin was also dispensed in wells without cells, which were used as references. After 3 h of incubation, the absorbance was measured in a microplate reader (ELX800UV, Biotek Instruments) at wavelengths of 570 nm and 600 nm. The corrected absorbance was proportional to cell viability. Propagation of uncertainties was used to calculate the combined standard uncertainty. For the cytotoxicity study using WM983b cells, plates were seeded at a density of 40,000 cells/cm², and cells were treated only with MB and AO.

HaCaT cells = test: Cytotoxicity (resazurin cell viability) in HaCaT cells; type: cell-based, human; settings: Homo sapiens, HaCaT cells, 1.25-320 µM
Text: as §1, §2

MET1 cells [2] = test: Intracellular ROS production in MET1 cells (DHE fluorescence); type: cell-based, human; settings: 5 µM
Protocol: MET1 cells were seeded at a density of 20,000 cells/cm² in 24-well plates. After 24 h, cells were treated with MB and AO diluted in culture medium at low concentrations (1.25 µM, 2.5 µM and 5 µM). The medium culture was replaced by the prepared samples. Plates were incubated for 24 h; then, cells were washed with medium, and DMEM without phenol red was added. The plates were submitted to 2.5 J/cm² irradiation under red light at 640 nm for MB and 457 nm blue light for AO. Dihydroethidium (DHE) was used to evaluate ROS production. For this assay, the medium was removed after irradiation, and 20 µM of DHE diluted in medium was added. The plate was incubated for 20 min, washed with medium and incubated 20 min with Hoechst 33342 (5 µg/mL), which was used to stain the cells’ nuclei. After removing the excess dye, culture medium was added, and the cells were immediately observed using a Nikon Ti-S epifluorescence microscope. Cells were examined using a 40 × objective in random areas of 4 different wells under the same treatment condition. Images were analyzed using ImageJ software, and the intensity was measured according to integrated density values of red fluorescence.

WM983b cells = test: Phototoxicity assay in WM983b cells (irradiation 2.5 J/cm², resazurin); type: cell-based; settings: Homo sapiens, light or radiation study, treated 24 h
Text: as §1
For the phototoxicity studies, 96-well plates were seeded with MET1 cells at a density of 20,000 cells/cm², incubated overnight and treated for 24 h with MB, AO, GV, QT, CUR, EGCG, PHE, NEO and BIPY diluted in culture medium in a concentration range of 1.25 µM to 40 µM (in sextuplicate). […] Cells cultured with complete medium and cells cultured with medium supplemented with 0.2% (v/v) or 10% (v/v) of DMSO were used as negative (NC), solvent (SC) and positive control (PC), respectively. The plates were incubated for 24 h, followed by washing with PBS supplemented with calcium and magnesium. Afterwards, complete culture medium without phenol red was added, and the plates were irradiated from above and submitted to a dose of 2.5 J/cm² of irradiation emitted by different wavelength light sources coupled with a homemade irradiation system created in our laboratory. These light sources consisted of an equivalent 26 cm UV tubular lamp (254 nm) (Phillips TUV PLS 9W/2PHg) and a tricolor LED lamp (Led Grow Light Bulb E26/E27) with intensity peaks at 457 nm (blue light), 583 nm (yellow light) and 640 nm (red light) provided by 18, 18 and 28 LEDs, respectively, with dimensions of 3 × 3 mm^2. The irradiance values of light at 254, 457, 583 and 640 nm wavelengths were of 16.7, 55, 45 and 25 W/m^2, respectively. This experiment was performed in an incubator that was able to keep plates in a dark environment; therefore, the dark control plates were protected from any light source, as well as the others, with the exception of the irradiation that each one was submitted to. Plates were incubated for another 24 h, and finally, the resazurin assay was performed as previously described in Section 3.3. For the phototoxicity study using WM983b cells, plates were prepared at a cell density of 40,000 cells/cm², and cells were treated with MB and AO only.

For `CN(C)c1ccc2cc3ccc(N(C)C)cc3nc2c1` [Acridine orange, acridine orange], the IC50 (MET1 cells [1]; 24 h exposure, read-out: IC50 MET1 Cells 24 h) was 15.1 µM, the IC50 (MET1 cells [1]; 48 h exposure, read-out: IC50 MET1 Cells 48 h) was 10.3 µM and the IC50 (HaCaT cells; 24 h exposure, read-out: IC50 HaCaT Cells 24 h) was 10.5 µM. For the same molecule, the IC50 (HaCaT cells; 48 h exposure, read-out: IC50 HaCaT Cells 48 h) was 6.5 µM, the “increase in fluorescence (DHE, integrated density) vs irradiated control” value (MET1 cells [2]; 457 nm irradiation 2.5 J/cm², vs irradiated control 0 µM) was “about 2.6 fold” and the “increase in fluorescence intensity (DHE, integrated density) vs non-irradiated control” value (MET1 cells [2]; non-irradiated, vs non-irradiated control 0 µM) was “about 1.8 fold”. For the same molecule, the IC50 (WM983b cells; 457 nm light, 2.5 J/cm², read-out: IC50 irradiated samples (457 nm)) was 1.1 µM and the IC50 (WM983b cells; without irradiation, read-out: IC50 non-irradiated samples) was 17.5 µM.
